These results are taken from article PMC3820577, “A High-Throughput Screen against Pantothenate Synthetase (PanC) Identifies 3-Biphenyl-4-Cyanopyrrole-2-Carboxylic Acids as a New Class of Inhibitor with Activity against Mycobacterium tuberculosis” (PLoS ONE, 2013).

Data set [1] has as its system M. tuberculosis H37Rv (RvS). Nature of the data set: microbe, parasite or virus in culture. The class given is cell-based, Mycobacterium tuberculosis.
Another data set relates to PanC-TetONM strain. Nature of the data set: microbe, parasite or virus in culture. The class given is cell-based, Mycobacterium tuberculosis.
The subject of another data set is Vero cells. In kind it is cell-based. To be noted: African green monkey, 48 h. The method, then: Cytotoxicity was measured against the African green monkey adult kidney cell line (Vero). Vero cells were plated at 25,000 cells/mL in black 96-well assay plates pre-populated with compound dilutions and controls. Cells were incubated in a humidified 5% CO2 environment at 37°C for 48 h; intracellular ATP levels were measured using CellTiter-Glo®Reagent (Promega, Madison, WI). Luminescence was measured using a Victor 2 plate reader and percentage inhibition of growth calculated. Results were expressed as toxicity concentration (TC50) = concentration of compound required to inhibit growth by 50%.

A further data set concerns HeLa cells. In kind it is cell-based. The following applies: human.
Data set [2] concerns the target T1, PanCMTB (Mycobacterium tuberculosis, UniProt P9WIL5).
T1 construct: 6X-Histidine (N); made in house; host or cells: E. coli BL21(ΔE3), vector pET28b+
The data set is described as follows: High-throughput single-timepoint fluorescence assay for PanCMTB activity (HTS and CRC). The following applies: for inhibition of the reaction: control inhibitor. The class given is biochemical. The method, then:
The activity of recombinant PanCMTB was measured, as previously described. Briefly, compounds or carrier DMSO alone were incubated with PanCMTB, the coupling enzymes, and their reagents for five minutes. The reaction was then initiated by addition of the PanCMTB substrates, pantoate and β-alanine. The reaction was conducted in wells of a black clear-bottomed microplate containing a final volume of 40 µL per well. The final concentrations were 0.4 mM NADH, 10 mM ATP, 1 mM pantoate, 5 mM β-alanine, 1 mM phosphoenol pyruvate (PEP-K), 10 mM MgCl2, 2% DMSO, 1 µg/mL of PanC, and 18 U/mL each of myokinase, pyruvate kinase and lactate dehydrogenase in 100 mM HEPES pH 7.8. The plate was immediately transferred to a SpectraMax micro-plate reader and the rate of NADH depletion was monitored by measuring the absorbance at 340 nm every 20 s for a total of 20 min.
The kinetic NADH depletion assay was initiated as described above. After 30 minutes 10 µL of solution containing fluorescent reagents was added to each well. The final 50 µL reaction contained 12.5 U/mL of diaphorase and 5 mM resazurin. After thorough mixing, the plate was transferred to a micro-plate reader and the level of resulting NADH-dependent resorufin determined by measuring fluorescence (excitation and emission filters set at […], respectively).
HTS library sets of individual compounds were plated at 1 mM - diluted first into HEPES and finally into the assay for a final assay concentration (FAC) of 20 µM. For concentration response curves (CRCs), the compounds were plated in single wells at 10 mM and diluted 3-fold across 9 adjacent wells in a row. Serial dilutions were made in 100% DMSO to ensure accurate concentrations of compound across the series. This entire plate was then treated in the same format as the HTS library plates, for FACs ranging from 200 µM- 0.01 µM in 2% DMSO (details provided in Text S1 and shown in Figure S3).

Data set [3] deals with T1, PanCMTB. The data set is described as follows: Low-throughput kinetic NADH depletion assay for PanCMTB, mode of inhibition. The class given is biochemical. To be noted: for mode of inhibition / Ki: with respect to pantoate; for Ki: read-out: Ki inhibition constant; for α (parameter of mixed inhibition equation): with respect to the substrate pantoate.
The target in data set [4] is T1, PanCMTB. Also noted: method as in PMID 17175524. To be noted: read-out: inhibition constant; cited from earlier work.
The mark [5] stands for this setting: Mycobacterium tuberculosis, H37RV, 144 h.
Setting [6] is: Mycobacterium tuberculosis, 144 h.

Molecules are shown by their SMILES. In brackets after ≈: the same amount, converted by molar mass. Structures can show the parent of a compound that is named as a salt. Where two headings read alike, the source gives them in different places.

The term EC50 denotes the concentration needed to bring the measured effect to its halfway point.

T1 sequence (P9WIL5 whole entry, looked up): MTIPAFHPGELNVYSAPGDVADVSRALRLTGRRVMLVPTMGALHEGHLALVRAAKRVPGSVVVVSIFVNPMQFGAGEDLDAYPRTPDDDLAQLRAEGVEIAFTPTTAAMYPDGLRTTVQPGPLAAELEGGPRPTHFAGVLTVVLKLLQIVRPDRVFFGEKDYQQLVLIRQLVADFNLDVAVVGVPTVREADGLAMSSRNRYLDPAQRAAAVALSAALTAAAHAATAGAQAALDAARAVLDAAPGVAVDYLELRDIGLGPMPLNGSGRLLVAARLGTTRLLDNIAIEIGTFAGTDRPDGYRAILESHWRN

`CCc1c(C#N)c(-c2ccc(-c3ccc(C#N)cc3)cc2)c(C(=O)O)n1C` [compound 2]: the MIC50 in data set [1] amounted to 54 µM (≈ 19.2 µg/mL); in data set [1] (setting [5]) it was 54 µM (≈ 19.2 µg/mL); in the data set with PanC-TetONM strain it was 24 µM (≈ 8.53 µg/mL); against PanC-TetONM strain (Mycobacterium tuberculosis) it was 53 µM (≈ 18.8 µg/mL); in the data set on PanC-TetONM strain (setting [6]), 24 µM (≈ 8.53 µg/mL). Also, in the data set on Vero cells, the TC50 came out at 96 µM. Moreover, the “average TC50” value in the data set on HeLa cells came to 111 µM. In addition, the EC50 on PanCMTB [2] was determined as 4000 nM. For the same molecule, the mode of inhibition entry on PanCMTB [3] is recorded as “competitive inhibition”. For the same molecule, the Ki at PanCMTB [3] is 297 nM. In addition, on PanCMTB [3], the “α (parameter of mixed inhibition equation)” value came out at 78.

For the molecule `CCSc1c(C#N)c(-c2ccc(-c3ccccc3)cc2)c(C(=O)O)n1C` [compound 1], the MIC50 in data set [1] was determined as 115 µM (≈ 41.7 µg/mL); in data set [1] (setting [5]) it was 115 µM (≈ 41.7 µg/mL); with PanC-TetONM strain (Mycobacterium tuberculosis) it was 111 µM (≈ 40.2 µg/mL); against PanC-TetONM strain (setting [6]), 69 µM (≈ 25 µg/mL). Further, in the data set with Vero cells, the TC50 came to 70 µM. The “average TC50” value in the data set on HeLa cells is 179 µM. The molecule also gave an EC50 at PanCMTB [2] of 1800 nM. Also, on PanCMTB [3], the mode of inhibition entry is “competitive inhibition”. For the same molecule, the Ki at PanCMTB [3] came out at 174 nM. Moreover, at PanCMTB [3], the “α (parameter of mixed inhibition equation)” value came to 128.

Regarding `CCN(CC)CCOC(=O)C(Cc1cccc2ccccc12)CC1CCCO1` (stereo not drawn) [nafronyl oxalate, reference compound], the Ki at PanCMTB [4] is about 75 µM. Besides, the “inhibition of the reaction” value against PanCMTB [2] (higher of two control concentrations) is listed as about 80%; against PanCMTB [2] (lower of two control concentrations) it was about 50%.
